Several values for one entry are separate records, joined by “and”; a condition that tells them apart may be missing. Equal values may be shown once.
Key:
[1] = target: Muscarinic acetylcholine receptor M1 (Homo sapiens) (UniProt P11229); test: Displacement of [3H]NMS from human mAChR1 receptor expressed in F1pIn CHO cells after 60 mins by scintillation counting analysis
[2] = target: Muscarinic acetylcholine receptor M1 (Homo sapiens) (UniProt P11229); test: Partial agonist activity at human mAChR1 receptor expressed in F1pIn CHO cells assessed as induction of intracellular calcium mobilization
[3] = target: Muscarinic acetylcholine receptor M1 (Homo sapiens) (UniProt P11229); test: Agonist activity at human mAChR1 receptor expressed in F1pIn CHO cells assessed as induction of intracellular calcium mobilization

Chain of Muscarinic acetylcholine receptor M1 (Homo sapiens) (P11229 whole entry, looked up): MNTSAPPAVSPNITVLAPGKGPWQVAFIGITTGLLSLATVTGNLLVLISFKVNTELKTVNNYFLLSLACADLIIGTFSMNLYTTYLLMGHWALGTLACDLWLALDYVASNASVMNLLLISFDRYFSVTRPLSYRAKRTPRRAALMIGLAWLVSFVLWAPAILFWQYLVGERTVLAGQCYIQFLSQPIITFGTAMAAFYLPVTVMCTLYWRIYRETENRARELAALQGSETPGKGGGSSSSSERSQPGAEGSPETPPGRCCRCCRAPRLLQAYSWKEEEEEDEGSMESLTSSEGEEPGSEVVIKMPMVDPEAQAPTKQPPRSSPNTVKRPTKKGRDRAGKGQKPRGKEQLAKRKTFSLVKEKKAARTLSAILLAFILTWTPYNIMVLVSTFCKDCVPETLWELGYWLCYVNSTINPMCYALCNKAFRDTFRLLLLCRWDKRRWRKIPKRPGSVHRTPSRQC

Row | Compound | IC50 [1] | EC50 [2] | EC50 [3] [µM]
1 | O=C1COc2ccccc2N1CCCN1CCN(c2cccc3[nH]c(=O)oc23)CC1 | 4.27 µM and 4.26 µM | – | –
2 | O=C1COc2ccccc2N1CCCN1CCN(c2cccc(Cl)c2Cl)CC1 | 1.86 µM and 1.87 µM | – | –
3 | O=C1COc2ccccc2N1CCCN1CCN(c2nsc3ccccc23)CC1 | 4.19 µM and 4.17 µM | 1.04 µM and 1.05 µM | –
4 | O=C1COc2ccccc2N1CCCN1CCC(c2noc3cc(F)ccc23)CC1 | 3.25 µM and 3.24 µM | – | –
5 | COc1ccccc1N1CCN(CCCN2C(=O)COc3ccccc32)CC1 | 5.18 µM and 5.13 µM | – | –
6 | O=C(Cc1ccccc1)NC1CCN(CCCN2C(=O)COc3ccccc32)CC1 [N-{1-[3-(3-Oxo-2,3-dihydrobenzo[1,4]oxazin-4-yl)propyl]-piperidin-4-yl}-2-phenylacetamide] | 8.53 µM and 8.51 µM | – | 0.129

Source: BindingDB's records for doi:10.1021/jm5013243 (Monash University (Parkville Campus), 2015)
